Measurements taken from ChEMBL document CHEMBL1743341, “Cytochrome p450 enzymes mechanism based inhibitors: common sub-structures and reactivity” (Curr Drug Metab, 2005).
“Also recorded” adds a separate entry of the source.

Assays:
Cytochrome P450 2C11 = molecular target: T1, Cytochrome P450 2C11 (Rattus norvegicus, UniProt P08683); assay: Mechanism based inhibition of rat cytochrome P450 CYP2C11 measured by 2-alpha and 16-alpha hydroxylation of testosterone; format: ADME
T1 sequence (P08683 whole entry): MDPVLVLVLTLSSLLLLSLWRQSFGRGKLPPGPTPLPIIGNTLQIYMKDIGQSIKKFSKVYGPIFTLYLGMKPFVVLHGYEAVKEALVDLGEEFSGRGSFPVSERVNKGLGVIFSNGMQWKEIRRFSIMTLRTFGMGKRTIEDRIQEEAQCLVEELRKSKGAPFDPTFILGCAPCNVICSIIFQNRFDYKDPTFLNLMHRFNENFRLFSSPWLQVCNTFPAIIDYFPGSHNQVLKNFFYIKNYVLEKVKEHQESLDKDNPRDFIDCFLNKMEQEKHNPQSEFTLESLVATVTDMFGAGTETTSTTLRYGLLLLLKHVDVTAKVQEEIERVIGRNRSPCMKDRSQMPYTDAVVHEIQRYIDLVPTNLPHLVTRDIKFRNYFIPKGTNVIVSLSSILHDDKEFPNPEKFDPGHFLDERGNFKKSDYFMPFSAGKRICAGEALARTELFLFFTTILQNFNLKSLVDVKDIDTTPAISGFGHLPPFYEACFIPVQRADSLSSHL

Cytochrome P450 3A4 [1] = molecular target: T2, Cytochrome P450 3A4 (Homo sapiens, UniProt P08684); assay: Mechanism based inhibition of human cytochrome P450 3A4 measured by nifedipine oxidation, omeprazole 3-hydroxylation and omeprazole sulfoxydation; format: ADME
Cytochrome P450 3A4 [2] = molecular target: T2, Cytochrome P450 3A4; assay: Mechanism based inhibition of human cytochrome P450 3A4 measured by testosterone 6-beta hydroxylation; format: ADME
Cytochrome P450 2C9 = Cytochrome P450 2C9 (Homo sapiens, UniProt P11712); assay: Mechanism based inhibition of human cytochrome P450 2C9 measured by diclofenac 4-hydroxylation; format: ADME
Cytochrome P450 2D6 = Cytochrome P450 2D6 (Homo sapiens, UniProt P10635); assay: Mechanism based inhibition of human cytochrome P450 2D6 measured by […] 1'-hydroxylation; format: ADME
CYP2C8 = molecular target: T3, CYP2C8 (Homo sapiens, UniProt P10632); assay: in vitro; settings: recombinant CYP2C8, probe paclitaxel
T3 sequence (P10632 whole entry): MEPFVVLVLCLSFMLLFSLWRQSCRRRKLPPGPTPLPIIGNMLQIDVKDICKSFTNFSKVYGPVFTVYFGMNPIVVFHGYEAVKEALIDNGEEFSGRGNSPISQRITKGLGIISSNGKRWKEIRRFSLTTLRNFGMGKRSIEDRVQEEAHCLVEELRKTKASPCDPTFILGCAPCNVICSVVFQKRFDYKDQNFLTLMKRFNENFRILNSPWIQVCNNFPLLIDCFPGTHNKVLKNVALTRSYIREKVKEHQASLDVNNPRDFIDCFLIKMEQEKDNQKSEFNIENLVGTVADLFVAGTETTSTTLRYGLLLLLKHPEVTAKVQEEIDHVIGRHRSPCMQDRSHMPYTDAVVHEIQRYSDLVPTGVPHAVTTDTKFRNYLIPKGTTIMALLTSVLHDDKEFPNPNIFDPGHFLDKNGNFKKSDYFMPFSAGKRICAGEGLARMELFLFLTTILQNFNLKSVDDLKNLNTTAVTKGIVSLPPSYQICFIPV
Description: (§3) Mechanism based inhibition of human cytochrome P450 2C8 measured by paclitaxel hydroxylation using a recombinant system

Cytochrome P450 2C8 = molecular target: T4, Cytochrome P450 2C8 (Homo sapiens, UniProt P10632)
T4 sequence (P10632 whole entry): T3 sequence (P10632 whole entry)
Description: as §3

Cytochrome P450 2B1 [3] = molecular target: T5, Cytochrome P450 2B1 (Rattus norvegicus, UniProt P00176); assay: (§1) Mechanism based inhibition of rat cytochrome P450 CYP2B1 measured by 7-EFC O-deethylation activity; format: ADME
T5 sequence (P00176 whole entry): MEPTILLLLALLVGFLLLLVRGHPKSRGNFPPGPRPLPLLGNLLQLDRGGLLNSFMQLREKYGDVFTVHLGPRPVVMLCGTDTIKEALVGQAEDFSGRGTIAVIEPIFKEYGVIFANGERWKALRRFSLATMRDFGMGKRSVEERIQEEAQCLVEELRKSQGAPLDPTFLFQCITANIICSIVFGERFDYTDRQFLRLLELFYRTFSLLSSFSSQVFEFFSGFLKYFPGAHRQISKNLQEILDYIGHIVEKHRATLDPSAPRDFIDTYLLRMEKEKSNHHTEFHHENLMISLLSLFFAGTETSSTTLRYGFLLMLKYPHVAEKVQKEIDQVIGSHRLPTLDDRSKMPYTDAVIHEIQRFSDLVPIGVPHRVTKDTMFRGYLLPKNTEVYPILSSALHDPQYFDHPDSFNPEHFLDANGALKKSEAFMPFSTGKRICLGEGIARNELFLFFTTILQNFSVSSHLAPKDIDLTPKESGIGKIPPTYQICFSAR

CYP2B6 = molecular target: T6, CYP2B6 (Homo sapiens, UniProt P20813); assay: (§2) Mechanism based inhibition of human cytochrome P450 2B6; format: ADME; settings: human
T6 sequence (P20813 whole entry): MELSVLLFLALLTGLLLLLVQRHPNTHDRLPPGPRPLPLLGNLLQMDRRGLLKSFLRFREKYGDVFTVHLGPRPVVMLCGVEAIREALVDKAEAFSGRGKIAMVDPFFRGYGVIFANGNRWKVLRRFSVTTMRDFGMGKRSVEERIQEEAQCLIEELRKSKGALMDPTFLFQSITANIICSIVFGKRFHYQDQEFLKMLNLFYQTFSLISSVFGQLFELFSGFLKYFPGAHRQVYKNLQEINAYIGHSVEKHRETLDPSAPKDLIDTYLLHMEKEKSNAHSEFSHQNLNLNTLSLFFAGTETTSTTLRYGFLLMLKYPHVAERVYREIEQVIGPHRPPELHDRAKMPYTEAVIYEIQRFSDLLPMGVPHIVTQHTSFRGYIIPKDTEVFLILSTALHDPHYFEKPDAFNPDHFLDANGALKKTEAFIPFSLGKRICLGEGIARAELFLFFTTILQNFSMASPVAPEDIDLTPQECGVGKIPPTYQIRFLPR

Cytochrome P450 2B6 = molecular target: T7, Cytochrome P450 2B6 (Homo sapiens, UniProt P20813); assay: as §2; format: ADME
T7 sequence (P20813 whole entry): T6 sequence (P20813 whole entry)

Cytochrome P450 2B1 [4] = molecular target: T5, Cytochrome P450 2B1; assay: Mechanism based inhibition of rat cytochrome P450 CYP2B1; format: ADME; settings: rat
CYP2B1 = molecular target: T8, CYP2B1 (Rattus norvegicus, UniProt P00176); assay: as §1; format: ADME; settings: rat, probe 7-EFC (O-deethylation)
T8 sequence (P00176 whole entry): T5 sequence (P00176 whole entry)

Cytochrome P450 1A2 = molecular target: T9, Cytochrome P450 1A2 (Homo sapiens, UniProt P05177); assay: Mechanism based inhibition of human cytochrome P450 1A2 measured by 7-ethoxyresorufin O-deethylation (EROD)
T9 sequence (P05177 whole entry): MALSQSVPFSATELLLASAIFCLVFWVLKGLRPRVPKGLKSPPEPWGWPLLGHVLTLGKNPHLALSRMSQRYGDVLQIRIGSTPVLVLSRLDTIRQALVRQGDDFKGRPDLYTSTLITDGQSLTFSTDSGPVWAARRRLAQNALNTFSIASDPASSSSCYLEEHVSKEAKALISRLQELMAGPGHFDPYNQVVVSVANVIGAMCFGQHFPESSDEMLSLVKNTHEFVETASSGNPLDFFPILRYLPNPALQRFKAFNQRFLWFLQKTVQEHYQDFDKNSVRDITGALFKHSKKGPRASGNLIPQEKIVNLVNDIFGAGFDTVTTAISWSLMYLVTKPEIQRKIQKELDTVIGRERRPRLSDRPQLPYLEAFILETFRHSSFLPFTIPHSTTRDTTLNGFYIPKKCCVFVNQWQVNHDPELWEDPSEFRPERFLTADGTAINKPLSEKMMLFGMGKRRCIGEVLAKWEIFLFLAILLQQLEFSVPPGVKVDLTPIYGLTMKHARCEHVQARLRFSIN

T2 sequence (P08684 whole entry): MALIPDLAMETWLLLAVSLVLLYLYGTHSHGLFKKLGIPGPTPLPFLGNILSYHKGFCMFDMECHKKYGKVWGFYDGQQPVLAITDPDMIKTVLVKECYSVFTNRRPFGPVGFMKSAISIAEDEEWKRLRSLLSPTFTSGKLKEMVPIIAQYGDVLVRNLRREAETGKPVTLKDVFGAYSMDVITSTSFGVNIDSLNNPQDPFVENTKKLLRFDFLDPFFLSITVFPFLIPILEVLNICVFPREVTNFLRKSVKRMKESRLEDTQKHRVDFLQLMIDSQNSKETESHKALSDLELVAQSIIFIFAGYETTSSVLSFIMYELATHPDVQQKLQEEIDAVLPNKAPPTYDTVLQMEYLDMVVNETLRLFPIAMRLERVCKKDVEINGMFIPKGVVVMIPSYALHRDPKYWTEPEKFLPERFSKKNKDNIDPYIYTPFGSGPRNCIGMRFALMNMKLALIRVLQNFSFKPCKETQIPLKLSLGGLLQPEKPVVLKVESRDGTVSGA
Chain of Cytochrome P450 2C9 (P11712 whole entry): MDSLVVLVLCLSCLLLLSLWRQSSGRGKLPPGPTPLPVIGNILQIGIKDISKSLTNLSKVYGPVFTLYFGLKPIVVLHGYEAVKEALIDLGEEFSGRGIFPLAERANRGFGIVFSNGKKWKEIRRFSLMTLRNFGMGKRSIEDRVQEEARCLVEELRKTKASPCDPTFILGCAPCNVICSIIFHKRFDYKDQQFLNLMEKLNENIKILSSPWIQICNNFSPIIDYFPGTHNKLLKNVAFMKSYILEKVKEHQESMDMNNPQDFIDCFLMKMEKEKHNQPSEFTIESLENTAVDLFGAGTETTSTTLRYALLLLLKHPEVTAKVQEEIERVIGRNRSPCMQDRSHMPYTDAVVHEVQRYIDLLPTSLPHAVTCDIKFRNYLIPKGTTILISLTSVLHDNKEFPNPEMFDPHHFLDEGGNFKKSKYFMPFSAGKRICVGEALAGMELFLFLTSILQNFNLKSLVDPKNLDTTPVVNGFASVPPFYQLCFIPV
Chain of Cytochrome P450 2D6 (P10635 whole entry): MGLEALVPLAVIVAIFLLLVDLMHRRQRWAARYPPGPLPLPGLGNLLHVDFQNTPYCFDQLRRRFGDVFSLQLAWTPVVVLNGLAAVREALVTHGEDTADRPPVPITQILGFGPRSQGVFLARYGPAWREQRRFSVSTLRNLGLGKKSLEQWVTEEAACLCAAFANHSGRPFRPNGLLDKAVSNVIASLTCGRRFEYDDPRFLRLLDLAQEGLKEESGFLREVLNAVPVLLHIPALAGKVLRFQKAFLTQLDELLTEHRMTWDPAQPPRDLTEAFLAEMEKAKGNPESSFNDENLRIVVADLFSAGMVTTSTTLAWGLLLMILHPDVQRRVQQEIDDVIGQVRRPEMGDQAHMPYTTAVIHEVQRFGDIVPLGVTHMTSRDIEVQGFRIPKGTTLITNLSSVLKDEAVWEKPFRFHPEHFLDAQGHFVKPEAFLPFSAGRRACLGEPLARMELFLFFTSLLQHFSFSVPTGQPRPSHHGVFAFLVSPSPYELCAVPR

CNCCCN1c2ccccc2CCc2ccccc21 [DESIPRAMINE]
mechanism based inhibition (Cytochrome P450 2C11): Cytochrome P450 mechanistic inhibitor: PMID 14555335

C/C(=C\COc1c2ccoc2cc2oc(=O)ccc12)CCC(OC(C)(C)C(O)CC/C(C)=C/COc1c2ccoc2cc2oc(=O)ccc12)C(C)(C)O (configuration not stated) [FC726]
Ki (Cytochrome P450 3A4 [1]): 130 nM
mechanism based inhibition (Cytochrome P450 3A4 [2]): Cytochrome P450 mechanistic inhibitor: PMID 10859150

CNCCC(Oc1ccc(C(F)(F)F)cc1)c1ccccc1 (configuration not stated) [FLUOXETINE]
mechanism based inhibition (Cytochrome P450 2C11): Cytochrome P450 mechanistic inhibitor: PMID 14555335

COc1ccc2c(c1OC)C(=O)O[C@@H]2[C@H]1c2cc3c(cc2CCN1C)OCO3 [HYDRASTINE]
mechanism based inhibition (Cytochrome P450 2C9): Cytochrome P450 mechanistic inhibitor: PMID 14570772
mechanism based inhibition (Cytochrome P450 2D6): Cytochrome P450 mechanistic inhibitor: PMID 14570772

CNCCC(Oc1ccccc1OC)c1ccccc1 (configuration not stated) [NISOXETINE]
mechanism based inhibition (Cytochrome P450 2C11): Cytochrome P450 mechanistic inhibitor: PMID 14555335

CNCCC=C1c2ccccc2CCc2ccccc21 [NORTRIPTYLINE]
kinact (CYP2C8): 0.0006 s⁻¹
Ki (Cytochrome P450 2C8): 49900 nM
mechanism based inhibition (Cytochrome P450 2C11): Cytochrome P450 mechanistic inhibitor: PMID 1435757; also recorded: Cytochrome P450 mechanistic inhibitor: PMID 14555335

c1ccc(C2(N3CCCCC3)CCCCC2)cc1 [PHENCYCLIDINE]
mechanism based inhibition (Cytochrome P450 2B1 [3]; rat): Cytochrome P450 mechanistic inhibitor: PMID 9029055
kinact (CYP2B6): 0.000167 s⁻¹
Ki (Cytochrome P450 2B6): 10000 nM

C=CCC1(C(C)CCC)C(=O)NC(=O)NC1=O (configuration not stated) [SECOBARBITAL]
mechanism based inhibition (Cytochrome P450 2B1 [4]): Cytochrome P450 mechanistic inhibitor: PMID 8728507

C#CCN(C)[C@H](C)Cc1ccccc1 [SELEGILINE]
kinact (CYP2B1): 0.00383 s⁻¹
Ki (Cytochrome P450 2B1 [3]): 1050 nM

Nc1c2c(nc3ccccc13)CCCC2 [TACRINE]
Ki (Cytochrome P450 1A2): 1940 nM
